≈ marks a conversion by molar mass, not a printed value. Where two headings read alike, the source gives them in different places. One block for each compound: values may come before it.
How the values were obtained:
Bacillus subtilis 168CA = test: Minimum Inhibitory Concentration (MIC) testing, broth microdilution, Bacillus subtilis; format: cell-based; settings: Bacillus subtilis 168CA; read-out: Bacillus subtilis MICs Activity
Method in brief: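 MICs were scored A (≦8 μg/ml), B (16–64 μg/ml) or C (>64 μg/ml), read as the lowest concentration preventing visible growth by eye and spectrophotometry. Plates incubated overnight (16–20 h) at 37 °C, inoculum OD 0.09 diluted 1:100 in 2× broth, per NCCLS guidelines.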

[1] = system: Staphylococcus aureus ATCC29213; test: Minimum Inhibitory Concentration (MIC) testing, broth microdilution, Staphylococcus aureus; format: cell-based; settings: Staphylococcus aureus ATCC29213; read-out: Staphylococcus aureus MICs Activity
Method in brief: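 Broth microdilution per NCCLS M7-A5 in Mueller Hinton broth, with compound in 1.6% DMSO and inoculum at OD 0.09 diluted 1:100. Plates incubated 16–20 h at 37°C. MIC is the lowest concentration with no visible growth; scored A ≤8, B 16–64, C >64 μg/ml.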

[2] = system: various bacterial species; test: Minimum Inhibitory Concentration (MIC) testing, broth microdilution, other bacterial species; format: cell-based
Experimental: (§1) Compounds of this invention were tested for antimicrobial activity by susceptibility testing in liquid media. MICs for compounds against each strain were determined by a broth microdilution method according to the National Committee for Clinical Laboratory Standards (NCCLS) guidelines. (NCCLS. 2000. Methods for dilution antimicrobial susceptibility tests for bacteria that grow aerobically—fifth edition. Approved standard M7-A5. NCCLS, Wayne, Pa.)
(§2) Briefly, test compounds are prepared in 100 μl of 1.6% DMSO solution in multiwell plates. Several bacterial colonies from a freshly streaked plate are transferred to an appropriate rich broth, such as Mueller Hinton. The cell suspension is adjusted to an optical density of 0.09 and further diluted 1:100 with warm 2× broth. This cell suspension is dispensed into the wells containing compound solution so that the final volume is 200 μl. The plates are incubated overnight (16-20 hours) at 37° C. and turbidity is scored by eye and quantified spectrophotometrically. The MIC is defined as the lowest concentration inhibiting visible growth.
Some of the Examples were also tested for activity against other bacterial species. […] Activities were again scored as ‘A’ if the MIC was ≦8 micrograms/ml, ‘B’ if the MIC was 16 to 64 micrograms/ml and ‘C’ if the MIC was greater than 64 micrograms/ml.

[3] = system: staphylococcal clinical isolates; test: Minimum Inhibitory Concentration (MIC) testing, broth microdilution, staphylococcal clinical isolates; format: cell-based; settings: for MIC: read-out: MIC Activity against clinical isolate
Experimental: as §1, §2
Some of the Examples were also tested for activity against staphylococcal clinical isolates. […] Activities were again scored as ‘A’ if the MIC was ≦8 micrograms/ml, ‘B’ if the MIC was 16 to 64 micrograms/ml and ‘C’ if the MIC was greater than 64 micrograms/ml.

[4] = Bacillus cereus, ATCC14579, read-out: MIC Activity Bacillus cereus ATCC 14579
[5] = Staphylococcus saprophyticus, ATCC15305, read-out: MIC Activity Staphylococcus saprophyticus ATCC 15305
[6] = S. aureus No. 753, Oxacillin S, Hospital
[7] = S. aureus No. 757, Oxacillin R, Tet-R, MI-R, Hospital (tetM)
[8] = S. aureus No. 1134, Oxacillin S, Hospital
[9] = S. aureus No. 1135, Oxacillin R, Van-S, LZD-S, Hospital
[10] = S. aureus No. 1651, Oxacillin R, Van-S, LZD-R, Hospital (G2576T, G)
[11] = S. aureus No. 1652, Oxacillin R, Van-S, LZD-R, Hospital (T2500T, A)
[12] = S. aureus No. 1662, Oxacillin S, Hospital
[13] = S. aureus No. 1725, Oxacillin R, Van-S, LZD-R, Hospital (G2576T)
[14] = S. aureus No. 1729, Oxacillin R, Tet-R, MI-R, Hospital
[15] = S. aureus No. 2011, Oxacillin R, Tet-R, MI-S, Hospital (tetK)
[16] = S. aureus No. 2012, Oxacillin R, Van-I, LZD-S, Hospital
[17] = S. aureus No. 2018, Oxacillin R, Van-I, LZD-S, Hospital
[18] = S. aureus No. 2142, Oxacillin R, CC-S, SXT-S, Community
[19] = S. aureus No. 2143, Oxacillin R, Rif-R, Community
[20] = S. aureus No. 2147, Oxacillin R, CC-S, SXT-S, Community
[21] = S. aureus No. 2149, Oxacillin R, CC-R (iMLS), SXT-S, Community
[22] = S. aureus No. 2150, Oxacillin R, CC-R, SXT-S, Community
[23] = S. aureus No. 2158, Oxacillin R, CC-R, Doxy-I, Community
[24] = S. aureus No. 2175, Oxacillin R, TMP-R, Community
[25] = S. epidermidis No. 831, Oxacillin R
[26] = S. epidermidis No. 1139, Oxacillin S
[27] = S. epidermidis No. 1142, Oxacillin R
[28] = S. epidermidis No. 1144, Oxacillin R
[29] = Staphylococcus aureus, ATCC29213, S. aureus No. 0100, Oxacillin S, ATCC 29213
[30] = Staphylococcus aureus, S. aureus No. 1015, Oxacillin R, Van-S, LZD-S, Hospital
[31] = Staphylococcus epidermidis, S. epidermidis No. 835, Oxacillin S
[32] = Staphylococcus epidermidis, ATCC12228, read-out: MIC Activity Staphylococcus epidermidis ATCC 12228
[33] = Staphylococcus haemolyticus, ATCC29970, read-out: MIC Activity Staphylococcus haemolyticus ATCC 29970

MIC (Bacillus subtilis 168CA): < 8 µg/mL
melting point: 97 to 100 °C
Compound: NC(=O)c1cccc(OCCCCCCCc2ccsc2)c1 [Example 63, 3-{[7-(3-Thienyl)heptyl]oxy}benzenecarboxamide]

MIC (Bacillus subtilis 168CA): 16 to 64 µg/mL (≈ 57.5 to 230 µM)
melting point: 185 to 186 °C
Compound: Cc1cc(COc2ccc(F)c(C(N)=O)c2F)ccn1 [Example 198, 2,6-Difluoro-3-[(2-methyl-4-pyridinyl)methoxy]benzenecarboxamide]

Compound: Cc1ccc(-c2nc(COc3ccc(F)c(C(N)=O)c3F)cs2)cc1 [Example 236, 2,6-Difluoro-3-[2-(4-methylphenyl)-1,3-thiazol-4-yl]methoxybenzenecarboxamide]
MIC (Bacillus subtilis 168CA): < 8 µg/mL
MIC [1]: < 8 µg/mL
MIC [2, 4]: < 8 µg/mL
MIC [2, 5]: < 8 µg/mL
MIC Activity against clinical isolate [3, 6]: A (‘A’ if the MIC was ≦8 micrograms/ml)
MIC Activity against clinical isolate [3, 7]: A (‘A’ if the MIC was ≦8 micrograms/ml)
MIC Activity against clinical isolate [3, 8]: A (‘A’ if the MIC was ≦8 micrograms/ml)
MIC Activity against clinical isolate [3, 9]: A (‘A’ if the MIC was ≦8 micrograms/ml)
MIC Activity against clinical isolate [3, 10]: A (‘A’ if the MIC was ≦8 micrograms/ml)
MIC Activity against clinical isolate [3, 11]: A (‘A’ if the MIC was ≦8 micrograms/ml)
MIC Activity against clinical isolate [3, 12]: A (‘A’ if the MIC was ≦8 micrograms/ml)
MIC Activity against clinical isolate [3, 13]: A (‘A’ if the MIC was ≦8 micrograms/ml)
MIC Activity against clinical isolate [3, 14]: A (‘A’ if the MIC was ≦8 micrograms/ml)
MIC Activity against clinical isolate [3, 15]: A (‘A’ if the MIC was ≦8 micrograms/ml)
MIC Activity against clinical isolate [3, 16]: A (‘A’ if the MIC was ≦8 micrograms/ml)
MIC Activity against clinical isolate [3, 17]: A (‘A’ if the MIC was ≦8 micrograms/ml)
MIC Activity against clinical isolate [3, 18]: A (‘A’ if the MIC was ≦8 micrograms/ml)
MIC Activity against clinical isolate [3, 19]: A (‘A’ if the MIC was ≦8 micrograms/ml)
MIC Activity against clinical isolate [3, 20]: A (‘A’ if the MIC was ≦8 micrograms/ml)
MIC Activity against clinical isolate [3, 21]: A (‘A’ if the MIC was ≦8 micrograms/ml)
MIC Activity against clinical isolate [3, 22]: A (‘A’ if the MIC was ≦8 micrograms/ml)
MIC Activity against clinical isolate [3, 23]: A (‘A’ if the MIC was ≦8 micrograms/ml)
MIC Activity against clinical isolate [3, 24]: A (‘A’ if the MIC was ≦8 micrograms/ml)
MIC Activity against clinical isolate [3, 25]: A (‘A’ if the MIC was ≦8 micrograms/ml)
MIC Activity against clinical isolate [3, 26]: A (‘A’ if the MIC was ≦8 micrograms/ml)
MIC Activity against clinical isolate [3, 27]: A (‘A’ if the MIC was ≦8 micrograms/ml)
MIC Activity against clinical isolate [3, 28]: A (‘A’ if the MIC was ≦8 micrograms/ml)
MIC [3, 29]: < 8 µg/mL
MIC [3, 30]: < 8 µg/mL
MIC [3, 31]: < 8 µg/mL

MIC (Bacillus subtilis 168CA): < 8 µg/mL
melting point: 78 to 80 °C
Compound: Cc1ccc(S(=O)(=O)OCCCCCCCCCOc2cccc(C(N)=O)c2)cc1 [Example 92, 9-[3-(Aminocarbonyl)phenoxy]nonyl 4-methylbenzenesulfonate]

MIC (Bacillus subtilis 168CA): < 8 µg/mL
MIC [1]: < 8 µg/mL
MIC [2, 32]: < 8 µg/mL
Compound: CCCCCC/C=C/COc1ccc(F)c(C(N)=O)c1F [Example 84, 2,6-Difluoro-3-[(E)-2-nonenyloxy]benzenecarboxamide]

MIC (Bacillus subtilis 168CA): < 8 µg/mL
MIC [1]: < 8 µg/mL
MIC [2, 32]: < 8 µg/mL
Compound: COc1ccc(-c2coc(COc3ccc(F)c(C(N)=O)c3F)n2)cc1 [Example 311, 2,6-Difluoro-3-[4-(4-methoxy-phenyl)-oxazol-2-ylmethoxy]-benzamide]

MIC (Bacillus subtilis 168CA): < 8 µg/mL
MIC [1]: < 8 µg/mL
Compound: COc1ccc(-c2nc(COc3ccc(F)c(C(N)=O)c3F)sc2-c2ccccc2)cc1 [Example 287, 2,6-Difluoro-3-[4-(4-methoxy-phenyl)-5-phenyl-thiazol-2-ylmethoxy]-benzamide]
MIC [2, 33]: < 8 µg/mL

MIC (Bacillus subtilis 168CA): < 8 µg/mL
MIC [1]: < 8 µg/mL
Compound: CCCc1ccc2sc(COc3ccc(F)c(C(N)=O)c3F)nc2c1 [Example 135, 2,6-Difluoro-3-(5-propyl-benzothiazol-2-ylmethoxy)-benzamide]
MIC [2, 33]: < 8 µg/mL

Compound: NC(=O)c1c(F)ccc(OCc2nc3cc(C(F)(F)F)ccc3s2)c1F [Example 217, 2,6-Difluoro-3-[5-(trifluoromethyl)-1,3-benzothiazol-2-yl]methoxybenzenecarboxamide]
MIC (Bacillus subtilis 168CA): < 8 µg/mL
MIC [1]: < 8 µg/mL
MIC [2, 4]: < 8 µg/mL
MIC [2, 32]: < 8 µg/mL
MIC [2, 5]: < 8 µg/mL
MIC Activity against clinical isolate [3, 6]: A (‘A’ if the MIC was ≦8 micrograms/ml)
MIC Activity against clinical isolate [3, 7]: A (‘A’ if the MIC was ≦8 micrograms/ml)
MIC Activity against clinical isolate [3, 8]: A (‘A’ if the MIC was ≦8 micrograms/ml)
MIC Activity against clinical isolate [3, 9]: A (‘A’ if the MIC was ≦8 micrograms/ml)
MIC Activity against clinical isolate [3, 10]: A (‘A’ if the MIC was ≦8 micrograms/ml)
MIC Activity against clinical isolate [3, 11]: A (‘A’ if the MIC was ≦8 micrograms/ml)
MIC Activity against clinical isolate [3, 12]: A (‘A’ if the MIC was ≦8 micrograms/ml)
MIC Activity against clinical isolate [3, 13]: A (‘A’ if the MIC was ≦8 micrograms/ml)
MIC Activity against clinical isolate [3, 14]: A (‘A’ if the MIC was ≦8 micrograms/ml)
MIC Activity against clinical isolate [3, 15]: A (‘A’ if the MIC was ≦8 micrograms/ml)
MIC Activity against clinical isolate [3, 16]: A (‘A’ if the MIC was ≦8 micrograms/ml)
MIC Activity against clinical isolate [3, 17]: A (‘A’ if the MIC was ≦8 micrograms/ml)
MIC Activity against clinical isolate [3, 18]: A (‘A’ if the MIC was ≦8 micrograms/ml)
MIC Activity against clinical isolate [3, 19]: A (‘A’ if the MIC was ≦8 micrograms/ml)
MIC Activity against clinical isolate [3, 20]: A (‘A’ if the MIC was ≦8 micrograms/ml)
MIC Activity against clinical isolate [3, 21]: A (‘A’ if the MIC was ≦8 micrograms/ml)
MIC Activity against clinical isolate [3, 22]: A (‘A’ if the MIC was ≦8 micrograms/ml)
MIC Activity against clinical isolate [3, 23]: A (‘A’ if the MIC was ≦8 micrograms/ml)
MIC Activity against clinical isolate [3, 24]: A (‘A’ if the MIC was ≦8 micrograms/ml)
MIC Activity against clinical isolate [3, 25]: A (‘A’ if the MIC was ≦8 micrograms/ml)
MIC Activity against clinical isolate [3, 26]: A (‘A’ if the MIC was ≦8 micrograms/ml)
MIC Activity against clinical isolate [3, 27]: A (‘A’ if the MIC was ≦8 micrograms/ml)
MIC Activity against clinical isolate [3, 28]: A (‘A’ if the MIC was ≦8 micrograms/ml)
MIC [3, 29]: < 8 µg/mL
MIC [3, 30]: < 8 µg/mL
MIC [3, 31]: < 8 µg/mL

MIC (Bacillus subtilis 168CA): < 8 µg/mL
MIC [1]: < 8 µg/mL
MIC [2, 32]: < 8 µg/mL
Compound: COc1ccc(-c2nc(COc3ccc(F)c(C(N)=O)c3F)sc2-c2ccc(OC)cc2)cc1 [Example 282, 2,6-Difluoro-3-[5-(4-methoxy-phenyl)-4-(4-methoxy-phenyl)-thiazol-2-ylmethoxy]-benzamide]

MIC (Bacillus subtilis 168CA): < 8 µg/mL
MIC [1]: < 8 µg/mL
MIC [2, 32]: < 8 µg/mL
Compound: NC(=O)c1c(F)ccc(OCc2nc3ccccc3s2)c1F [Example 215, 3-(1,3-Benzothiazol-2-ylmethoxy)-2,6-difluorobenzenecarboxamide]

MIC (Bacillus subtilis 168CA): < 8 µg/mL
MIC [1]: < 8 µg/mL
MIC [2, 5]: < 8 µg/mL
Compound: NC(=O)c1c(F)ccc(OCc2ccc3ccc(Cl)cc3n2)c1F [Example 111, 3-(7-Chloro-quinolin-2-ylmethoxy)-2,6-difluoro-benzamide]

Source: US8088791B2, “Antibacterial agents” (Biots Scientific Management Pty Ltd, priority 2006, dated 2012)
